# Numbering of substitutions follows the chain as printed.
# Key:
# Assay in all cases: yeast two-hybrid, hormone-induced D14-MAX2 interaction
# Type in all cases: cell-based
# AtD14 (with SsMAX2) [1] = target: T1, AtD14 (with SsMAX2) (Arabidopsis thaliana, UniProt Q9SQR3); details: 5 uM rac-GR24 versus DMSO; 30 °C, 4 days; partner SsMAX2
# T1 construct: gene D14; GAL4-BD fusion, with Saccharum spontaneum MAX2 as GAL4-AD fusion, yeast AH109; with F-box protein MAX2 homolog (D3), Saccharum spontaneum
# T1 sequence (Q9SQR3 1-267): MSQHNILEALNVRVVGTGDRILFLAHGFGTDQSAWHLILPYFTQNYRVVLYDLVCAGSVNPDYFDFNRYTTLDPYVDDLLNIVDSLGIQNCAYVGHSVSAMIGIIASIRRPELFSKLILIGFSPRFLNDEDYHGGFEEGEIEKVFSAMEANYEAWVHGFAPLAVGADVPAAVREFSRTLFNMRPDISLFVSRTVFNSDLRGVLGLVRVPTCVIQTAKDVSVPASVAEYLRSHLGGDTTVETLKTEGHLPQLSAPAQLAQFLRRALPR
# AtD14 (with SsMAX2) [2] = target: T2, AtD14 (with SsMAX2) (Arabidopsis thaliana, UniProt Q9SQR3, R262P); details: 5 uM rac-GR24 versus DMSO; 30 °C, 4 days; partner SsMAX2
# T2 construct: gene D14; GAL4-BD fusion, with Saccharum spontaneum MAX2 as GAL4-AD fusion, yeast AH109; with F-box protein MAX2 homolog (D3), Saccharum spontaneum
# T2 sequence (Q9SQR3 1-267 R262P): T1 sequence (Q9SQR3 1-267) with R262P
# SsD14b (with SsMAX2) = target: T3, SsD14b (with SsMAX2) (Saccharum spontaneum, UniProt Z9BCY6HYO0); details: 5 uM rac-GR24 versus DMSO; 30 °C, 4 days; partner SsMAX2
# T3 construct: full-length CDS as GAL4-BD fusion (pGBKT7), SsMAX2 as GAL4-AD fusion (pGADT7), yeast AH109; with F-box protein MAX2 homolog (D3)
# T3 sequence (Z9BCY6HYO0 1-310): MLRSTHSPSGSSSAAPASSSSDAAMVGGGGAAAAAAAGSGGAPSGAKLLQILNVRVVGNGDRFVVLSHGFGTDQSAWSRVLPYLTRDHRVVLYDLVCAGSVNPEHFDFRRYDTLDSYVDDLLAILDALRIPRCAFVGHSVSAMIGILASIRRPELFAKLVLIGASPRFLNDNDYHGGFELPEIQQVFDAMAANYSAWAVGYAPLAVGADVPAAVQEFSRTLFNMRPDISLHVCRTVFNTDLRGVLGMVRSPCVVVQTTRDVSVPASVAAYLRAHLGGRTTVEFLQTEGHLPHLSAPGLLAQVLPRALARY
# OsD14ΔN (with SsMAX2) [3] = target: T4, OsD14ΔN (with SsMAX2) (Oryza sativa, UniProt Q10QA5, R312P); details: 5 uM rac-GR24 versus DMSO; 30 °C, 4 days; partner SsMAX2; R312P in full-length count
# T4 construct: gene D14; N-terminally truncated (printed OsD14ΔN53; R261/R312 offset implies 51 residues removed), GAL4-BD fusion, with Saccharum spontaneum MAX2 as GAL4-AD fusion, yeast AH109; with F-box protein MAX2 homolog (D3), Saccharum spontaneum
# T4 sequence (Q10QA5 54-318 R312P): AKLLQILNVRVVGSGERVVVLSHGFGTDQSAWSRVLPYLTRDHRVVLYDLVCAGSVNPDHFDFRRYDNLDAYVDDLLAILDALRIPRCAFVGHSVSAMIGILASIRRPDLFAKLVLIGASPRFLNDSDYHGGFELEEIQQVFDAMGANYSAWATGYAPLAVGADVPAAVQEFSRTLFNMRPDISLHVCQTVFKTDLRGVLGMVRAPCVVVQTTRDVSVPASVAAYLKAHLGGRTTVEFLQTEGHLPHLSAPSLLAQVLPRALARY
# OsD14ΔN (with SsMAX2) [4] = target: T5, OsD14ΔN (with SsMAX2) (Oryza sativa, UniProt Q10QA5); details: 5 uM rac-GR24 versus DMSO; 30 °C, 4 days; partner SsMAX2
# T5 construct: gene D14; N-terminally truncated (printed OsD14ΔN53; R261/R312 offset implies 51 residues removed), GAL4-BD fusion, with Saccharum spontaneum MAX2 as GAL4-AD fusion, yeast AH109; with F-box protein MAX2 homolog (D3), Saccharum spontaneum
# T5 sequence (Q10QA5 54-318): T4 sequence (Q10QA5 54-318 R312P) with P259R
# SsD14a (with SsMAX2) = target: T6, SsD14a (with SsMAX2) (Saccharum spontaneum, UniProt Z9T3V1O2D3); details: 5 uM rac-GR24 versus DMSO; 30 °C, 4 days; partner SsMAX2
# T6 construct: full-length CDS as GAL4-BD fusion (pGBKT7), SsMAX2 as GAL4-AD fusion (pGADT7), yeast AH109; 7F5W is apo SsD14a lacking residues 1-49; with F-box protein MAX2 homolog (D3)
# T6 sequence (Z9T3V1O2D3 1-316): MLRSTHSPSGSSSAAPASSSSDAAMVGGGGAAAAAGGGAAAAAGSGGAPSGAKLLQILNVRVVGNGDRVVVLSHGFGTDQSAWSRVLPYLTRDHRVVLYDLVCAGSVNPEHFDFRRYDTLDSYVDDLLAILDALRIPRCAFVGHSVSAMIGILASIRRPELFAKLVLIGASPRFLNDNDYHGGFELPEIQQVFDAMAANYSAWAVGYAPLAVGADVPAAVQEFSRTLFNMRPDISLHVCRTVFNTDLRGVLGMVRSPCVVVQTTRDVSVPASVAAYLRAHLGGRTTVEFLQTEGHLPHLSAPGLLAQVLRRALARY
structure (smiles),measurement,setting,value
CC1=CC(OC=C2C(=O)OC3c4ccccc4CC23)OC1=O (racemic) [rac-GR24],"yeast two-hybrid, hormone-induced D14-MAX2 interaction",AtD14 (with SsMAX2) [1],SsMAX2 interacted with AtD14 in an SL-dependent manner
same,"yeast two-hybrid, hormone-induced D14-MAX2 interaction",AtD14 (with SsMAX2) [2],"AtD14R262P and OsD14ΔNR261P, like wild-type proteins, still have strong hormone-dependent interactions with SsMAX2"
same,"yeast two-hybrid, hormone-induced D14-MAX2 interaction",SsD14b (with SsMAX2),SL induced both SsD14a and SsD14b to interact with SsMAX2 in yeast
same,"yeast two-hybrid, hormone-induced D14-MAX2 interaction",OsD14ΔN (with SsMAX2) [3],"AtD14R262P and OsD14ΔNR261P, like wild-type proteins, still have strong hormone-dependent interactions with SsMAX2"
same,"yeast two-hybrid, hormone-induced D14-MAX2 interaction",OsD14ΔN (with SsMAX2) [4],"like wild-type proteins, still have strong hormone-dependent interactions with SsMAX2"
same,"yeast two-hybrid, hormone-induced D14-MAX2 interaction",SsD14a (with SsMAX2),SL induced both SsD14a and SsD14b to interact with SsMAX2 in yeast

# Reference: publication PMC8632500, “Identification of Conserved and Divergent Strigolactone Receptors in Sugarcane Reveals a Key Residue Crucial for Plant Branching Control” (Frontiers in Plant Science, 2021)
